Target: T1, persulfurated 3MST (Mus musculus, UniProt Q99J99)
T1 construct: The recombinant full-length wild-type mouse 3MST; made in house; host or cells: E. coli JM109 (DE3)
T1 sequence (Q99J99 1-297): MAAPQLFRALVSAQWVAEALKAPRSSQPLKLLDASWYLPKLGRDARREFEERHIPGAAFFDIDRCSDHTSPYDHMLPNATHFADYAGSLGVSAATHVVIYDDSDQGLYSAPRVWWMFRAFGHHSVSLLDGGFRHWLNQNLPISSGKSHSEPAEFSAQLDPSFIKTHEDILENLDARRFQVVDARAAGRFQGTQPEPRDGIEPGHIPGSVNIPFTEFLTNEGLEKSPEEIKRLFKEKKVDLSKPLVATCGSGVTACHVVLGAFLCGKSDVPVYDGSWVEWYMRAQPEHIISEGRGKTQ
Test: ITC analysis with persulfurated 3MST
Assay type: binding
Conditions: 25 °C; for ΔH (ITC): persulfurated 3MST; for Kd: persulfurated (3MP-treated) 3MST, pH 9, read-out: Dissociation constant Kd (ITC)
Experimental: The recombinant full-length wild-type mouse 3MST and mutant m3MST (C65S/C255S/C264S) were expressed as an N-terminal His-tagged protein ([…]-3MST) in E. coli JM109 (DE3). The pET44a(+) vector (Novagen) was used as an expression vector. Cells were grown at 37 °C in LB broth (Miller) or 2 × YT broth containing 0.1 g/L ampicillin to OD600 about 0.5, and then protein expression was induced by adding IPTG (final conc. 0.5 mM (LB), 1 mM (2 × YT)). Cells were cultured overnight at 18–20 °C with shaking and harvested at 4 °C by centrifugation at 9,000 rpm for 5 min. Harvested cells were resuspended in lysis buffer containing 0.1 M HEPES-NaOH pH 8, 0.5 M NaCl, 0% or 10% glycerol, 0.5 mM TCEP, 1 mM PMSF, and 1% EtOH, and disrupted by sonication. Cell lysis solutions were centrifuged at 20,000 rpm for 20 min. […] The proteins were further purified on HisTrap HP (GE Healthcare) by increasing the imidazole concentration in buffer containing 0.02 M HEPES pH 8, 0.15 M NaCl, 10% glycerol, and 0.05 mM TCEP until proteins were eluted. Then the His-tag was removed by GST-fusion HRV 3 C protease digestion. The proteins were further purified by anion exchange chromatography on a HiTrap Q HP (GE Healthcare) by increasing the NaCl concentration in buffer containing 0.02 M HEPES pH 8, 10% glycerol, 0.5 mM TCEP until proteins were eluted, and then by gel filtration chromatography on Superdex 75 prep grade using buffer containing 0.02 M HEPES pH 7.5, 0.3 M NaCl, 0.5 mM TCEP. Wild-type 3MST was used in ITC analysis and mutant 3MST was used for crystallization.
Persulfurated 3MST was prepared as follows: 3MST-3MP solution (5 μM 3MST, 25 μM 3MP, 20 μM TCEP, 0.02 M glycine-NaOH pH9, 0.1 M NaCl) was incubated for 2 hr at room temperature. To prevent buffer mismatch and to remove unreacted 3MP and reaction product (pyruvate), the reaction solution was exchanged to ITC measurement solution (0.02 M glycine-NaOH pH 9, 0.1 M NaCl, 5% DMSO) using an Amicon Ultra (10 K) (Millipore) or Vivaspin (10 K) (Sartorius). Non-persulfurated 3MST solution was also prepared by buffer exchange. Both inhibitors were dissolved in the ITC measurement solution. Inhibitor solution (0.5 mM compound 1 or 0.25 mM compound 3) were titrated into a protein solution (0.05 mM 3MST) at 25 °C using a MicroCal iTC200 (GE Healthcare). The first injection of 0.4 μL was followed by 18 injections of 2 μL with 150 s between each injection. Each experiment was repeated three times (n = 3). For data analysis, the first injection peak was removed. Data analyses and curve fitting to a single-site binding model were performed by Origin7 SR4 software (OriginLab).

Row | ΔH (ITC) | Kd | SMILES
1 | -9.37 kcal/mol | 3000 nM | NC(=O)c1ccsc1NC(=O)CSc1nc2ccccc2c(=O)[nH]1 [compound 1]
2 | -11.76 kcal/mol | 500 nM | Cc1cc(=O)[nH]c(SCC(=O)c2cccc3ccccc23)n1 [compound 3]
